Usually pIC50 stands for the negative decadic logarithm of the IC50, by convention in mol/L.

Molecules are shown by their SMILES. pIC50: −log10 of the molar value. Entries after “also recorded” stand apart in the source; their conditions may differ. Counter-ions that a name gives are not always drawn. A value given as a limit tells only on which side of the number the result lay.

The values below come from patent US8609610B2, “Inhibitors of the trypsin-like site of the proteasome and methods of use thereof” (Trustees of Dartmouth College, priority 2011, dated 2013).

One assay addresses T1, β5 proteasome subunit (Homo sapiens, UniProt P20618+P28074).
T1 construct: Whole cell lysates of HEK-293T or EL-4 cells were made by sonication; endogenous in cells; host or cells: HEK-293T
The experiment in a line: Competition assay in HEK-293T cell lysate with MV151. Conditions: HEK293 extracts. Type of assay: biochemical. The protocol:
Whole cell lysates of HEK-293T or EL-4 cells were made by sonication in 3 volumes of lysis buffer containing 50 mM Tris pH 7.5, 1 mM DTT, 5 mM MgCl2, 250 mM sucrose, 2 mM ATP, 0.025% digitonin. Protein concentration was determined by the Bradford assay. Cell lysates (13.5 μg total protein for HEK lysates and 9 μg total protein for EL-4 lysates) were exposed to the inhibitors for 1 hour at 37° C. prior to incubation with MV151 (0.5 μM) or BODIPY-TMR-epoxomicin (0.5 μM) for an additional 1 hour at 37° C. Reaction mixtures were boiled with Laemmli's buffer containing (3-mercaptoethanol for 5 minutes before being resolved by 12.5% SDS-PAGE. In-gel detection of residual proteasome activity was performed in the wet gel slabs directly on the TYPHOON Variable Mode Imager (Amersham Biosciences) using the Cy3/Tamra settings (λex 532 nm, λem 560 nm) to detect MV151, BODIPY-TMR-epoxomicin and Cy2/Fam settings (λex 488 nm, λem 520 nm) to detect compounds 39 and 59.
The inhibition potential of the inhibitors for each of the catalytically active subunits was assessed in competition assays employing extracts of human embryonic kidney cells (HEK-293T) and mouse lymphoma cells (EL-4) in combination with the fluorescent broad spectrum proteasome probe MV151 (Verdoes, et al. (2006) Chem. Biol. 13:1217-1226). Competitive inhibition of a proteasome active site is reflected by the disappearance of the corresponding band on a gel.

Assay [1] deals with trypsin-like site of 26S proteasomes. The experiment in a line: Inhibition of purified 26S proteasomes, substrate Ac-RLR-amc. Type of assay: biochemical, rabbit. Particulars: rabbit 26S proteasomes.
The target of assay [2] is T2, trypsin-like site of 26S proteasomes (Oryctolagus cuniculus, UniProt G1SWK8).
T2 construct: IC50 for sites in 26S proteasomes: Tr-L; other: purified 26S proteasomes; other: 26S proteasomes from rabbit muscles
T2 sequence (G1SWK8 1-271): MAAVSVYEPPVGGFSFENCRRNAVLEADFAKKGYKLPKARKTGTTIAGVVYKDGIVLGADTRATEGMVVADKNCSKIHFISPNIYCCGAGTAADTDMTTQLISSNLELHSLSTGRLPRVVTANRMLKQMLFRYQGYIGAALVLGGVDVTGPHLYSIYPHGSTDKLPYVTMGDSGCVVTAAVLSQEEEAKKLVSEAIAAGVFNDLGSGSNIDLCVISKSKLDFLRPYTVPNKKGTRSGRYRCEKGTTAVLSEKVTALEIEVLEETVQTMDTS
The assay is described as above. Type of assay: biochemical, rabbit.

Assay [3] deals with caspase-like site of 26S proteasomes (Oryctolagus cuniculus, UniProt A0A5F9DQW2). Put plainly: Inhibition of purified 26S proteasomes, substrate Ac-nLPnLD-amc. The format is biochemical, rabbit. Particulars: >>30 no inhibition at 30 μM, >30 inhibition between 10 and 50% at 30 μM, read-out: IC50 for sites in 26S proteasomes: Casp-L. Here is the method:
(§1) 26S proteasomes were purified from rabbit muscle using known methods (Screen, et al. (2010) supra). […] NOVEX Bis-Tris gels (12%, Invitrogen) with MOPS running buffer were used for electrophoretic separation of catalytic subunits modified by active-site probes. Inhibition of active sites inside cells was assayed using luminescent PROTEASOMEGLO assay (Promega; Moravec, et al. (2009) Anal. Biochem. 387:294-302) according to known methods (Britton, et al. (2009) supra).

Assay [4] has as its target T3, chymotrypsin-like site of 26S proteasomes (Oryctolagus cuniculus, UniProt G1T4Q9).
T3 sequence (G1T4Q9 1-263): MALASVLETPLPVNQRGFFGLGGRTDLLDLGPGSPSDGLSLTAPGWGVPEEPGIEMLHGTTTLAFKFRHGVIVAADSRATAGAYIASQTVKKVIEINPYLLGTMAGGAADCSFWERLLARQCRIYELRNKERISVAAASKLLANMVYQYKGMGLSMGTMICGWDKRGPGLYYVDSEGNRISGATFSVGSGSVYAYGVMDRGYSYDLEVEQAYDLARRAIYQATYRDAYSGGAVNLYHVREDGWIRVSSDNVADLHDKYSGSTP
Put plainly: Inhibition of purified 26S proteasomes, substrate Suc-LLVY-amc. Particulars: >>30 no inhibition at 30 μM, >30 inhibition between 10 and 50% at 30 μM, read-out: IC50 for sites in 26S proteasomes: Chym-L. Type of assay: biochemical, rabbit. Here is the method: as §1

The next assay has as its system β2 and β2i sites. The experiment in a line: MV-151 label-competition in extracts of RPMI-8226 MM cells. The format is biochemical. Particulars: extracts of RPMI-8226 cells, MV-151 probe. The source says:
Multiple myeloma cells express constitutive proteasomes and immunoproteasomes, and substrates used for the measurement of activity were cleaved by both. To determine whether there were any differences in inhibition of constitutive proteasomes or immunoproteasomes by NC-002, NC-012, and NC-022, the fluorescent activity-based probe MV-151 (Verdoes, et al. (2006) Chem. Biol. 13:1217-1226) was used in a label-competition experiment. Extracts of RPMI-8226 MM cells (which express more immunoproteasomes than NCI-H929 cells) were treated first with the NC inhibitors and then with the MV-151 probe. This was followed by fractionation on SDS-PAGE to separate proteasome subunits and imaging to reveal those subunits labeled by the probe (i.e., unmodified by the inhibitors).

Assay [5] deals with T4, trypsin-like sites (β2) of proteasome in MM cells (Homo sapiens, UniProt Q99436).
T4 construct: endogenous in cells; host or cells: NCI-H929, RPMI-8226 and other MM cell lines
T4 sequence (Q99436 44-277): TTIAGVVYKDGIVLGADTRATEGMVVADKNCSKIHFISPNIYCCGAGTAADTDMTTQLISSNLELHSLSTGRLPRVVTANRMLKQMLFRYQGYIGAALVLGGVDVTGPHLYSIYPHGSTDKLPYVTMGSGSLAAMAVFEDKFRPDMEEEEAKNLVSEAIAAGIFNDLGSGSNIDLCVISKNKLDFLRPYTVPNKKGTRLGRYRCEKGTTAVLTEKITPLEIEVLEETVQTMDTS
Put plainly: PROTEASOMEGLO assay of proteasome inhibition in MM cells. The format is cell-based. Conditions: NCI-H929 cells treated overnight. The protocol: Proteasome inhibition in MM cells was measured with luminogenic substrates using PROTEASOMEGLO assay (Promega). […] An aliquot of culture was pelleted and medium was removed and replaced with PBS. The resulting cell suspension was mixed with luminogenic substrates in the manufacturer-provided lysis/assay buffer. After 3 minutes mixing on an orbital shaker, the plate was incubated in the dark for additional 17 minutes, followed by the measurements of the luminescence, performed in triplicate for each substrate/data point. Data were analyzed as for purified proteasomes. […] Cells (1×10^6 per well of a 6-well plate) were incubated with the inhibitors for 4 hours at 37° C. and this was followed by a 2 hour incubation with 5 μM BODIPY-TMR-epoxomicin. Subsequently, the medium was removed and the cells were washed with PBS and harvested. […] The supernatant was collected and the protein concentration was determined by the Bradford assay, and used to normalize gel loading. The samples were analysed by SDS-PAGE and fluorescent densitometry as described for competition experiment in cell lysates. IC50 values were calculated from three independent experiments using […] PRISM software.

caspase-like site of 26S proteasomes, sequence (A0A5F9DQW2 1-212): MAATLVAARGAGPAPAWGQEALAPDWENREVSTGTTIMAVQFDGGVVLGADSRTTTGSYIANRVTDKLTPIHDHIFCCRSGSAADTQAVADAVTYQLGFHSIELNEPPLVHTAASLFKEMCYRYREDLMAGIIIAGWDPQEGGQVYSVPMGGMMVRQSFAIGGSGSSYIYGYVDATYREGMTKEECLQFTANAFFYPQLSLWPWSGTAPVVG

Turning to `CC(C)C[C@@H](/C=C/S(C)(=O)=O)NC(=O)[C@H](CC(C)C)NC(=O)[C@H](Cc1ccc(N)cc1)NC(=O)[C@H](Cc1ccccc1)N=[N+]=[N-]` [Compound 56, N3-Phe-Phe(4-NH2-TFA)-Leu-Leu-VS], the “inhibition of chymotrypsin-like sites in extracts versus purified proteasomes” value at β5 proteasome subunit is “less potently and selectively in extracts than in purified proteasomes”. Moreover, the “IC50 (Chym-L)/IC50 (Tr-L)” value in assay [1] was <0.00017. The pIC50 in assay [2] (purified 26S proteasomes, >>30 no inhibition at 30 μM, >30 inhibition between 10 and 50% at 30 μM, read-out: IC50 for sites in 26S proteasomes: Tr-L) was 4.62; in assay [3] it was < 4.52; in assay [4], > 8.40.

Consider `CC(=O)N[C@@H](CCCNC(=N)N)C(=O)N[C@@H](CC(C)C)C(=O)N[C@@H](CCCNC(=N)N)C(=O)[C@@]1(C)CO1` [NC-012, Ac-Arg-Leu-Arg-ek], for which the “inhibition of constitutive (β2) versus immunoproteasome (β2i) trypsin-like sites” value in the assay with β2 and β2i sites was “equipotent inhibitors of the trypsin-like sites of constitutive and immunoproteasomes”. Moreover, the “proteasome inhibitory potential on purified 26S proteasomes” value in assay [2] (26S proteasomes from rabbit muscles) was “potent and specific inhibitors of the trypsin-like sites; also recorded: most potent and specific in the series”. Further, the “inhibition of trypsin-like activity in live cells” value in assay [5] is “much higher concentrations”.
